Assay results published in the supplement of paper PMC10307832.

How the values were obtained:
Assay in all cases: relative viability (nuclei count vs DMSO), 5 days (fraction); higher = more cells survive
[1] = tested on: A-427
In short: (§1)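 Relative viability divides the nuclei count in treated wells by that in vehicle wells. Lung cancer cell lines were seeded in 1536-well plates, dosed by pin tool the next day, and fixed and stained after 5 days in one step with final 0.05% Triton X-100, 1% formaldehyde and 1 ug/ml Hoechst. Dosing was a single drug or a fixed anchor-drug dose plus five library-drug doses (not always all listed) in √10 steps, and values are medians of duplicate plates imaged at 4×.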

[2] = tested on: COR-L 105
In short: as §1

[3] = tested on: EKVX
In short: as §1

[4] = tested on: EMC-BAC-2
In short: as §1

[5] = tested on: H3255
In short: as §1

[6] = tested on: HCC-366
In short: as §1

[7] = tested on: LK-2
In short: as §1

[8] = tested on: LOU-NH91
In short: as §1

[9] = tested on: NCI-H1563
In short: as §1

[10] = tested on: NCI-H1666
In short: as §1

[11] = tested on: NCI-H1734
In short: as §1

[12] = tested on: NCI-H1755
In short: as §1

[13] = tested on: NCI-H1792
In short: as §1

[14] = tested on: NCI-H1944
In short: as §1

[15] = tested on: NCI-H1975
In short: as §1

[16] = tested on: NCI-H2170
In short: as §1

[17] = tested on: NCI-H23
In short: as §1

[18] = tested on: NCI-H520
In short: as §1

[19] = tested on: NCI-H596
In short: as §1

[20] = tested on: PC-3 [JPC-3]
In short: as §1

[21] = tested on: SK-MES-1
In short: as §1

[22] = tested on: NCI-H441
In short: as §1

SMILES: CC(C)Oc1cc(Nc2nc(N[C@@H](C)c3ccc(F)cn3)ncc2Cl)n[nH]1 [AZ23] + CS(=O)(=O)CCNCc1ccc(-c2ccc3ncnc(Nc4ccc(OCc5cccc(F)c5)c(Cl)c4)c3c2)o1 [Lapatinib] (partner 2 µM)
- relative viability ([1]; first compound 0.01 µM): 1.24
- relative viability ([1]; first compound 0.03162 µM): 1.02
- relative viability ([1]; first compound 0.3162 µM): 1.03
- relative viability ([2]; first compound 0.01 µM): 0.35
- relative viability ([2]; first compound 0.03162 µM): 0.382
- relative viability ([2]; first compound 0.3162 µM): 0.373
- relative viability ([3]; first compound 0.01 µM): 0.188
- relative viability ([3]; first compound 0.03162 µM): 0.207
- relative viability ([3]; first compound 0.3162 µM): 0.192
- relative viability ([4]; first compound 0.01 µM): 0.968
- relative viability ([4]; first compound 0.03162 µM): 0.981
- relative viability ([4]; first compound 0.3162 µM): 0.922
- relative viability ([5]; first compound 0.01 µM): 0.203
- relative viability ([5]; first compound 0.03162 µM): 0.252
- relative viability ([5]; first compound 0.3162 µM): 0.279
- relative viability ([6]; first compound 0.01 µM): 0.905
- relative viability ([6]; first compound 0.03162 µM): 1.52
- relative viability ([6]; first compound 0.3162 µM): 1.11
- relative viability ([7]; first compound 0.01 µM): 0.958
- relative viability ([7]; first compound 0.03162 µM): 1.3
- relative viability ([7]; first compound 0.3162 µM): 0.685
- relative viability ([8]; first compound 0.01 µM): 0.674
- relative viability ([8]; first compound 0.03162 µM): 0.787
- relative viability ([8]; first compound 0.3162 µM): 0.716
- relative viability ([9]; first compound 0.01 µM): 0.915
- relative viability ([9]; first compound 0.03162 µM): 1.06
- relative viability ([9]; first compound 0.3162 µM): 0.921
- relative viability ([10]; first compound 0.01 µM): 0.747
- relative viability ([10]; first compound 0.03162 µM): 0.565
- relative viability ([10]; first compound 0.3162 µM): 0.591
- relative viability ([11]; first compound 0.01 µM): 1.27
- relative viability ([11]; first compound 0.03162 µM): 1.23
- relative viability ([11]; first compound 0.3162 µM): 1.11
- relative viability ([12]; first compound 0.01 µM): 1.28
- relative viability ([12]; first compound 0.03162 µM): 1.16
- relative viability ([12]; first compound 0.3162 µM): 1.05
- relative viability ([13]; first compound 0.01 µM): 1.17
- relative viability ([13]; first compound 0.03162 µM): 1.13
- relative viability ([13]; first compound 0.3162 µM): 0.995
- relative viability ([14]; first compound 0.01 µM): 0.789
- relative viability ([14]; first compound 0.03162 µM): 0.88
- relative viability ([14]; first compound 0.3162 µM): 0.903
- relative viability ([15]; first compound 0.01 µM): 1.27
- relative viability ([15]; first compound 0.03162 µM): 0.961
- relative viability ([15]; first compound 0.3162 µM): 0.862
- relative viability ([16]; first compound 0.01 µM): 0.267
- relative viability ([16]; first compound 0.03162 µM): 0.283
- relative viability ([16]; first compound 0.3162 µM): 0.27
- relative viability ([17]; first compound 0.03162 µM): 1.23
- relative viability ([17]; first compound 0.3162 µM): 1.07
- relative viability ([18]; first compound 0.01 µM): 0.842
- relative viability ([18]; first compound 0.03162 µM): 0.964
- relative viability ([18]; first compound 0.3162 µM): 0.8
- relative viability ([19]; first compound 0.01 µM): 1.03
- relative viability ([19]; first compound 0.03162 µM): 1.11
- relative viability ([19]; first compound 0.3162 µM): 1.03
- relative viability ([20]; first compound 0.01 µM): 0.464
- relative viability ([20]; first compound 0.03162 µM): 0.489
- relative viability ([20]; first compound 0.3162 µM): 0.454
- relative viability ([21]; first compound 0.01 µM): 0.492
- relative viability ([21]; first compound 0.03162 µM): 0.484
- relative viability ([21]; first compound 0.3162 µM): 0.491

SMILES: Clc1ccc(Nc2nnc(Cc3ccncc3)c3ccccc23)cc1 [Vatalanib] + C[C@]1(O)C[C@@H](c2nc(-c3ccc4ccc(-c5ccccc5)nc4c3)c3c(N)nccn32)C1 [Linsitinib] (partner 1 µM)
- relative viability ([1]; first compound 0.04 µM): 1.15
- relative viability ([1]; first compound 0.1265 µM): 1.1
- relative viability ([1]; first compound 0.4 µM): 1.13
- relative viability ([1]; first compound 1.265 µM): 1.06
- relative viability ([1]; first compound 4 µM): 1.1
- relative viability ([2]; first compound 0.04 µM): 0.835
- relative viability ([2]; first compound 0.1265 µM): 0.87
- relative viability ([2]; first compound 0.4 µM): 1.12
- relative viability ([2]; first compound 1.265 µM): 0.772
- relative viability ([2]; first compound 4 µM): 0.941
- relative viability ([3]; first compound 0.04 µM): 1.03
- relative viability ([3]; first compound 0.1265 µM): 0.89
- relative viability ([3]; first compound 0.4 µM): 0.941
- relative viability ([3]; first compound 1.265 µM): 0.814
- relative viability ([3]; first compound 4 µM): 0.776
- relative viability ([4]; first compound 0.04 µM): 0.817
- relative viability ([4]; first compound 0.1265 µM): 0.762
- relative viability ([4]; first compound 0.4 µM): 0.793
- relative viability ([4]; first compound 1.265 µM): 0.808
- relative viability ([4]; first compound 4 µM): 0.802
- relative viability ([5]; first compound 0.04 µM): 0.984
- relative viability ([5]; first compound 0.1265 µM): 0.902
- relative viability ([5]; first compound 0.4 µM): 0.702
- relative viability ([5]; first compound 1.265 µM): 0.932
- relative viability ([5]; first compound 4 µM): 0.921
- relative viability ([6]; first compound 0.04 µM): 0.722
- relative viability ([6]; first compound 0.1265 µM): 0.456
- relative viability ([6]; first compound 0.4 µM): 0.725
- relative viability ([6]; first compound 1.265 µM): 0.542
- relative viability ([6]; first compound 4 µM): 0.609
- relative viability ([7]; first compound 0.04 µM): 0.712
- relative viability ([7]; first compound 0.1265 µM): 0.423
- relative viability ([7]; first compound 0.4 µM): 0.541
- relative viability ([7]; first compound 1.265 µM): 0.435
- relative viability ([7]; first compound 4 µM): 0.704
- relative viability ([8]; first compound 0.04 µM): 1.02
- relative viability ([8]; first compound 0.1265 µM): 0.921
- relative viability ([8]; first compound 0.4 µM): 0.757
- relative viability ([8]; first compound 1.265 µM): 0.913
- relative viability ([8]; first compound 4 µM): 0.89
- relative viability ([9]; first compound 0.04 µM): 1.42
- relative viability ([9]; first compound 0.1265 µM): 1.27
- relative viability ([9]; first compound 0.4 µM): 1.24
- relative viability ([9]; first compound 1.265 µM): 1.12
- relative viability ([9]; first compound 4 µM): 1.2
- relative viability ([10]; first compound 0.04 µM): 0.805
- relative viability ([10]; first compound 0.1265 µM): 0.891
- relative viability ([10]; first compound 0.4 µM): 0.923
- relative viability ([10]; first compound 1.265 µM): 0.779
- relative viability ([10]; first compound 4 µM): 0.708
- relative viability ([11]; first compound 0.04 µM): 0.971
- relative viability ([11]; first compound 0.1265 µM): 0.866
- relative viability ([11]; first compound 0.4 µM): 1.03
- relative viability ([11]; first compound 1.265 µM): 0.886
- relative viability ([11]; first compound 4 µM): 0.859
- relative viability ([12]; first compound 0.04 µM): 0.984
- relative viability ([12]; first compound 0.1265 µM): 1.04
- relative viability ([12]; first compound 0.4 µM): 0.995
- relative viability ([12]; first compound 1.265 µM): 0.991
- relative viability ([12]; first compound 4 µM): 0.919
- relative viability ([13]; first compound 0.04 µM): 0.465
- relative viability ([13]; first compound 0.1265 µM): 0.494
- relative viability ([13]; first compound 0.4 µM): 0.506
- relative viability ([13]; first compound 1.265 µM): 0.493
- relative viability ([13]; first compound 4 µM): 0.515
- relative viability ([14]; first compound 0.04 µM): 1.11
- relative viability ([14]; first compound 0.1265 µM): 0.997
- relative viability ([14]; first compound 0.4 µM): 1.17
- relative viability ([14]; first compound 1.265 µM): 1.2
- relative viability ([14]; first compound 4 µM): 1.23
- relative viability ([15]; first compound 0.04 µM): 0.889
- relative viability ([15]; first compound 0.1265 µM): 0.92
- relative viability ([15]; first compound 0.4 µM): 1.1
- relative viability ([15]; first compound 1.265 µM): 0.834
- relative viability ([15]; first compound 4 µM): 0.86
- relative viability ([17]; first compound 0.04 µM): 0.533
- relative viability ([17]; first compound 0.1265 µM): 0.659
- relative viability ([17]; first compound 0.4 µM): 0.601
- relative viability ([17]; first compound 1.265 µM): 0.495
- relative viability ([17]; first compound 4 µM): 0.583
- relative viability ([22]; first compound 0.04 µM): 0.597
- relative viability ([22]; first compound 0.1265 µM): 0.515
- relative viability ([22]; first compound 0.4 µM): 0.583
- relative viability ([22]; first compound 1.265 µM): 0.722
- relative viability ([22]; first compound 4 µM): 0.645
- relative viability ([18]; first compound 0.04 µM): 0.901
- relative viability ([18]; first compound 0.1265 µM): 0.888
- relative viability ([18]; first compound 0.4 µM): 0.802
- relative viability ([18]; first compound 1.265 µM): 0.86
- relative viability ([18]; first compound 4 µM): 0.989
- relative viability ([19]; first compound 0.04 µM): 1.18
- relative viability ([19]; first compound 0.1265 µM): 1.13
- relative viability ([19]; first compound 0.4 µM): 0.951
- relative viability ([19]; first compound 1.265 µM): 1.14
- relative viability ([19]; first compound 4 µM): 1.08
- relative viability ([20]; first compound 0.04 µM): 0.986
- relative viability ([20]; first compound 0.1265 µM): 1.01
- relative viability ([20]; first compound 0.4 µM): 0.957
- relative viability ([20]; first compound 1.265 µM): 0.824
- relative viability ([20]; first compound 4 µM): 0.932
- relative viability ([21]; first compound 0.04 µM): 1.04
- relative viability ([21]; first compound 0.1265 µM): 1.03
- relative viability ([21]; first compound 0.4 µM): 1.17
- relative viability ([21]; first compound 1.265 µM): 1.02
- relative viability ([21]; first compound 4 µM): 0.928
